Test results published in publication PMC6589914 (Chembiochem, 2019).

Target: T1, BT2970 (Bacteroides thetaiotaomicron, UniProt Q8A3I4)
T1 sequence (Q8A3I4 30-484): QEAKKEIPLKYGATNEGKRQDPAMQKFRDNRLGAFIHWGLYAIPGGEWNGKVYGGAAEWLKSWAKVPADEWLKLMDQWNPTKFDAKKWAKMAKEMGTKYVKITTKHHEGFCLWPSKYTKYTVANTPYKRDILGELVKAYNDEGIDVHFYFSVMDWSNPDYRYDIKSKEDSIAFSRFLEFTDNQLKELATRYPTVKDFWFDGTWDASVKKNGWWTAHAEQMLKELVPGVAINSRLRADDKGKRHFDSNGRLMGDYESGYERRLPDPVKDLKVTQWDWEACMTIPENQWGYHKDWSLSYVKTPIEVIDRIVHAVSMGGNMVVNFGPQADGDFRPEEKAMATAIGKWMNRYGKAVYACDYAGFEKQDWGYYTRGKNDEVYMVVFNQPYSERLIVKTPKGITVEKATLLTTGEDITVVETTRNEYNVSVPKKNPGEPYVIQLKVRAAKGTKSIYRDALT
Assay: enzyme inhibition
Assay type: biochemical

| Ki [µM] | Compound |
| --- | --- |
| 121 ± 24 | C[C@@H]1O/C(=N\OC(=O)Nc2ccccc2)[C@@H](O)[C@H](O)[C@@H]1O [compound 39, 39] |

Target: T2, bFUCA1 (Bos taurus, UniProt Q2KIM0)
T2 sequence (Q2KIM0 23-468): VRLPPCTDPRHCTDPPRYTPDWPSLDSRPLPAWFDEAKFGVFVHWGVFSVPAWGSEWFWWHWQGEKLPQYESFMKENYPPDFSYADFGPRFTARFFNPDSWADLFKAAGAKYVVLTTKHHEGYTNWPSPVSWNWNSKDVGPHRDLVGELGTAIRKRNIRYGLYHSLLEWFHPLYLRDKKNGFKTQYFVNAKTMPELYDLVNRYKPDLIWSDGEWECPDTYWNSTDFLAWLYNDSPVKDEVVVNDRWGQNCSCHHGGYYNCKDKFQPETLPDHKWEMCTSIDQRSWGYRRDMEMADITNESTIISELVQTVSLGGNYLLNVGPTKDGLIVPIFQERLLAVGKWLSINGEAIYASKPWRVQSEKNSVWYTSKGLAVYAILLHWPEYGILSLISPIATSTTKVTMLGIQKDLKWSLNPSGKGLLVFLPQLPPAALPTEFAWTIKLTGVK
Assay: enzyme inhibition assay with 4-nitrophenyl α-L-fucopyranoside
Assay type: biochemical

| Compound | Ki [µM] |
| --- | --- |
| C[C@@H]1O/C(=N\OC(=O)Nc2ccccc2)[C@@H](O)[C@H](O)[C@@H]1O [compound 39, 39] | 11 ± 1 |
| CCCCCCCCCCc1ccc(NC(=O)ON=C2O[C@@H](C)[C@@H](O)[C@@H](O)[C@@H]2O)cc1 [compound 43, 43] | 4.8 ± 0.5 |
| C[C@@H]1OC(=NOC(=O)Nc2ccc(Br)cc2)[C@@H](O)[C@H](O)[C@@H]1O [compound 40, 40] | 85 ± 4 |
| CCCCc1ccc(NC(=O)ON=C2O[C@@H](C)[C@@H](O)[C@@H](O)[C@@H]2O)cc1 [compound 42, 42] | 7.5 ± 0.4 |
| C[C@@H]1OC(=NO)[C@@H](O)[C@H](O)[C@@H]1O [compound 12, 1,5-hydroximolactone 12] | 323 ± 12 |
| COc1ccc(NC(=O)ON=C2O[C@@H](C)[C@@H](O)[C@@H](O)[C@@H]2O)cc1 [compound 41, 41] | 9.5 ± 0.9 |

Further lines, results first:

| Ki [µM] | Compound |
| --- | --- |
| 172 ± 7 | CCCCNC(=O)ON=C1O[C@@H](C)[C@@H](O)[C@@H](O)[C@@H]1O [compound 31, 31] |
| 190 ± 11 | CCCNC(=O)ON=C1O[C@@H](C)[C@@H](O)[C@@H](O)[C@@H]1O [compound 29, 29] |
| 440 ± 9 | C[C@@H]1OC(=NOC(=O)NC(C)(C)C)[C@@H](O)[C@H](O)[C@@H]1O [compound 34, 34] |
| 143 ± 8 | CCCCCCNC(=O)ON=C1O[C@@H](C)[C@@H](O)[C@@H](O)[C@@H]1O [compound 32, 32] |
| 220 ± 12 | C[C@@H]1OC(=NOC(=O)NC2CCC2)[C@@H](O)[C@H](O)[C@@H]1O [compound 36, 36] |
| 325 ± 8 | C[C@@H]1OC(=NOC(=O)NC2CCCC2)[C@@H](O)[C@H](O)[C@@H]1O [compound 37, 37] |
| 175 ± 6 | C=CCNC(=O)ON=C1O[C@@H](C)[C@@H](O)[C@@H](O)[C@@H]1O [compound 30, 30] |
| 184 ± 6 | C[C@@H]1OC(=NOC(=O)NC2CC2)[C@@H](O)[C@H](O)[C@@H]1O [compound 35, 35] |
| 320 ± 12 | CC(C)NC(=O)ON=C1O[C@@H](C)[C@@H](O)[C@@H](O)[C@@H]1O [compound 33, 33] |
